# According to ChEMBL document CHEMBL1147822, “One-pot synthesis and SAR study of cis-2,6-dialkyl-4-chloro-tetrahydropyrans” (2006):
# What was measured:
# Type in all cases: functional
# [1] = tested on: A2780; assay: Antiproliferative activity against human A2780 cells; settings: for CC50: read-out: LC50 (the source's name)
# [2] = tested on: SW1573; assay: Antiproliferative activity against human SW1573 cells; settings: for CC50: read-out: LC50 (the source's name)
# [3] = tested on: WiDr; assay: Antiproliferative activity against human WiDr cells
Structure (SMILES),GI50 [1] [µM],TGI [1] [µM],CC50 [1] [µM],GI50 [2] [µM],TGI [2] [µM],GI50 [3] [µM],"LC50 (lethal concentration, 50% net cell kill) [3] [µM]",TGI [3] [µM],CC50 [2] [µM]
COc1ccc([C@@H]2C[C@H](Cl)C[C@H](CC(C)C)O2)cc1,25,57,95,30,80,36,95,73,–
CC(C)C[C@H]1C[C@@H](Cl)C[C@@H](C2CCCCC2)O1,20,38,73,22,43,26,–,63,82
CC(C)C[C@H]1C[C@@H](Cl)C[C@@H](c2ccccc2)O1,17,35,72,24,48,39,–,88,90
O=[N+]([O-])c1ccc([C@H]2C[C@@H](Cl)CCO2)cc1,> 100,–,–,> 100,–,> 100,–,–,–
CC(C)C[C@H]1C[C@@H](Cl)C[C@@H](C)O1,> 100,–,–,> 100,–,> 100,–,–,–
CC(C)C[C@@H]1C[C@H](Cl)C[C@H](CC(C)C)O1,63,90,–,67,89,> 100,–,–,–
Cl[C@H]1CCO[C@@H](c2ccccc2)C1,> 100,–,–,> 100,–,> 100,–,–,–
CC(C)C[C@H]1C[C@@H](Cl)CCO1,> 100,–,–,> 100,–,> 100,–,–,–
CC(C)C[C@H]1C[C@@H](Cl)C[C@@H](c2ccc([N+](=O)[O-])cc2)O1,21,64,–,30,–,38,–,–,–
